Columns and labels:
Histone deacetylase 1 = Histone deacetylase 1 (Homo sapiens, UniProt Q13547); assay: Inhibition of human recombinant HDAC1 using Boc-Lys(acetyl)-AMC substrate incubated for 2 hrs by fluorescence based assay
Histone deacetylase 3 = Histone deacetylase 3 (Homo sapiens, UniProt O15379); assay: Inhibition of human recombinant HDAC3 using Boc-Lys(acetyl)-AMC substrate incubated for 2 hrs by fluorescence based assay
Histone deacetylase 2 = Histone deacetylase 2 (Homo sapiens, UniProt Q92769); assay: Inhibition of human recombinant HDAC2 using Boc-Lys(acetyl)-AMC substrate incubated for 2 hrs by fluorescence based assay
[1] = target: T1, Protein deacetylase HDAC6 (Homo sapiens, UniProt Q9UBN7); assay: Inhibition of human recombinant HDAC6 using Boc-Lys(acetyl)-AMC substrate incubated for 2 hrs by fluorescence based assay
T1 sequence (Q9UBN7 whole entry): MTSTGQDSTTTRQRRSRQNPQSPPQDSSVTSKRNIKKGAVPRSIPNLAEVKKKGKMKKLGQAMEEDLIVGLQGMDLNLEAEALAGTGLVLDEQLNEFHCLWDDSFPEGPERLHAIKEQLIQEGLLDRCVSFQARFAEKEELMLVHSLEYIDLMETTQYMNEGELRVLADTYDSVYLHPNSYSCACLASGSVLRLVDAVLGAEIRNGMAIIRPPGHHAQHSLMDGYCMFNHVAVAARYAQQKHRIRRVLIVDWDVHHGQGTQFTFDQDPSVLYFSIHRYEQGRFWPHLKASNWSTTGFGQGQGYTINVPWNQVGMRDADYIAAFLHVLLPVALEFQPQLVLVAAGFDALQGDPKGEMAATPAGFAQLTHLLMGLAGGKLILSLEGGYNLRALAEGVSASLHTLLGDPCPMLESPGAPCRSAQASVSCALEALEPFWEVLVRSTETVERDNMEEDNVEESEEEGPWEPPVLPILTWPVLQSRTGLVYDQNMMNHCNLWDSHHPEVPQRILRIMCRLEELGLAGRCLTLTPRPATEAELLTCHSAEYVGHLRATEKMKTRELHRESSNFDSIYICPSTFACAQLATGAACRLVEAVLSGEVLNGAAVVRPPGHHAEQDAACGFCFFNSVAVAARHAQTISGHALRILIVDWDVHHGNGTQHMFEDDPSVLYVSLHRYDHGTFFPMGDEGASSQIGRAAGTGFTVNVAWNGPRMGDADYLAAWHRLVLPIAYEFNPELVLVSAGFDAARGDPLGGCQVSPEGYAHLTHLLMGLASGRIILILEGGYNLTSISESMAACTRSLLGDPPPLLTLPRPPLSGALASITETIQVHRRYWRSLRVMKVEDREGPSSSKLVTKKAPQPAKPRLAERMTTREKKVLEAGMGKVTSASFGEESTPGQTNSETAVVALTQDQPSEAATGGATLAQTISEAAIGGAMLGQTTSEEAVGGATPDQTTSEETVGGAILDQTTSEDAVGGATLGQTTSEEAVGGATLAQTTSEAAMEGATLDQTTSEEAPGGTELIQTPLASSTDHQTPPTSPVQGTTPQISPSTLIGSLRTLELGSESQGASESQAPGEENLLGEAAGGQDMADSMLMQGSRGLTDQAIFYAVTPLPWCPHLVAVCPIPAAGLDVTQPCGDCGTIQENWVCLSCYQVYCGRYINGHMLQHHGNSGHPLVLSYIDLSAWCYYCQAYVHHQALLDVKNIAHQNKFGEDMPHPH

MV4-11 = assay: cells; details: Homo sapiens, MV4-11, 48 h
Description: Antiproliferative activity against human MV4-11 AML cells assessed as cell viability measured after 48 hrs by multiplate reader method

[2] = Cmax in CD-1 mouse at 20 mg/kg, po measured upto 24 hrs; format: ADME, organism-based; design: route oral, dose 20 mg/kg, time <=24; details: mouse, in vivo, 24 h
[3] = Oral bioavailability in CD-1 mouse at 20 mg/kg measured upto 24 hrs; format: ADME, organism-based; details: in vivo
[4] = AUC (0 to infinity) in CD-1 mouse at 20 mg/kg, po measured upto 24 hrs; format: ADME, organism-based; design: route oral, dose 20 mg/kg, time <=24; details: in vivo

Sequence of Histone deacetylase 2 (Q92769 whole entry): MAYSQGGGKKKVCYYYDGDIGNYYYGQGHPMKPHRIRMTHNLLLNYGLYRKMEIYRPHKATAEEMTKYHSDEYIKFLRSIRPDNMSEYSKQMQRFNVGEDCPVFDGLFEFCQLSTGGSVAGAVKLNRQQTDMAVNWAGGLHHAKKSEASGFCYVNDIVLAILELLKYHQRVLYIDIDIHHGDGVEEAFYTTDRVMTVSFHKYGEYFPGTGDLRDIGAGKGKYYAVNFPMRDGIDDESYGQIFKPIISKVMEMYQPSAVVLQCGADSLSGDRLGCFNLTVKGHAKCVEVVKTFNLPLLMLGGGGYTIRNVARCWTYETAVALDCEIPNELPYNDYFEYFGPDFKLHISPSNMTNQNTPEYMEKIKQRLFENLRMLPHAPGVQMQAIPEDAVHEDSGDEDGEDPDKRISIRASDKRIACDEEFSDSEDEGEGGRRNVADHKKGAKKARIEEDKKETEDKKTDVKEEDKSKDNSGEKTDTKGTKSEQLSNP
Sequence of Histone deacetylase 1 (Q13547 whole entry): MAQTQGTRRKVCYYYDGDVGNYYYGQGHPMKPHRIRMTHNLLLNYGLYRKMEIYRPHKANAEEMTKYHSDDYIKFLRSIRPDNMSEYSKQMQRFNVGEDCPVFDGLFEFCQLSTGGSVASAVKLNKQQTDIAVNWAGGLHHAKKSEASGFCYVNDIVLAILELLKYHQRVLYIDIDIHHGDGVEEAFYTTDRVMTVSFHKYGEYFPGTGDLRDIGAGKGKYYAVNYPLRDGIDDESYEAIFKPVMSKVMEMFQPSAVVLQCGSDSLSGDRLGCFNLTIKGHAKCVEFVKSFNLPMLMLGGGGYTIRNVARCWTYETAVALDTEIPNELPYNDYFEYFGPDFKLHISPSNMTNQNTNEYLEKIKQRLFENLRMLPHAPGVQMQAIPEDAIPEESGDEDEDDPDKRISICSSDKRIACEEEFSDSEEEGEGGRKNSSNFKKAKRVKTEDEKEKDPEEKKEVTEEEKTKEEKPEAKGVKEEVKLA
Sequence of Histone deacetylase 3 (O15379 whole entry): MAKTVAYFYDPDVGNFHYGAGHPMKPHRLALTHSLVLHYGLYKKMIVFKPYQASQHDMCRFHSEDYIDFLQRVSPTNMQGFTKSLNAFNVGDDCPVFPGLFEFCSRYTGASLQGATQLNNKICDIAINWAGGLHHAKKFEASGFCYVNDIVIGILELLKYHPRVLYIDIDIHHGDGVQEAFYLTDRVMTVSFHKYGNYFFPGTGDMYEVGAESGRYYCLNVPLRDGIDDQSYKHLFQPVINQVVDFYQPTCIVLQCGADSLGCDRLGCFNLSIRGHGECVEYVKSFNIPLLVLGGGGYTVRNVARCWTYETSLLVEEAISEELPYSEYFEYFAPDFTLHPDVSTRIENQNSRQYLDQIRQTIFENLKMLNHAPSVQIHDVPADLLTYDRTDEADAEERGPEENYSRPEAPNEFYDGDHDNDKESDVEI

| Structure (SMILES) | IC50 (Histone deacetylase 1) | IC50 (Histone deacetylase 3) | IC50 (Histone deacetylase 2) | IC50 [1] | IC50 (MV4-11) | Cmax [2] | F [3] | AUC [4] |
| --- | --- | --- | --- | --- | --- | --- | --- | --- |
| CCCNNC(=O)c1ccc(CNC(=O)c2nc3ccccc3s2)cc1 | 9.73 nM | 1.31 nM | 42 nM | > 10000 nM | 43.6 nM | – | – | – |
| CCCNNC(=O)c1ccc(CNC(=O)c2cc3ccccc3s2)cc1 | – | – | – | > 10000 nM | – | – | – | – |
| C=CCOc1ccc2oc(C(=O)NCc3ccc(C(=O)NNCCC)cc3)cc2c1 | 11.7 nM | 0.85 nM | 35.8 nM | > 10000 nM | 53.8 nM | – | – | – |
| CCCNNC(=O)c1ccc(CNC(=O)c2cnc3ccccc3c2)cc1 | 13.7 nM | 1.79 nM | 59.6 nM | > 10000 nM | 71 nM | – | – | – |
| CCCNNC(=O)c1ccc(CNC(=O)c2ccc3ccncc3c2)cc1 | 20.8 nM | 1.55 nM | 30.1 nM | > 10000 nM | 74 nM | – | – | – |
| CCCNNC(=O)c1ccc(CNC(=O)c2cc3cc(F)ccc3[nH]2)cc1 | 12.9 nM | 1.61 nM | 52.7 nM | > 10000 nM | 91.2 nM | – | – | – |
| CCCNNC(=O)c1ccc(CNC(=O)c2ccc3ccccc3c2)cc1 | 7.98 nM | 0.89 nM | 30.5 nM | > 10000 nM | 43.6 nM | – | – | – |
| CCCNNC(=O)c1ccc(CNC(=O)c2cc3cc(F)ccc3o2)cc1 | 8.22 nM | 0.83 nM | 27.9 nM | > 10000 nM | 56.5 nM | – | – | – |
| CCCNNC(=O)c1ccc(CNC(=O)c2nc3ccccc3[nH]2)cc1 | 11.3 nM | 1.44 nM | 33.4 nM | > 10000 nM | 53.1 nM | – | – | – |
| CCCNNC(=O)c1ccc(CNC(=O)c2ccc3cnccc3c2)cc1 | 17.1 nM | 1.03 nM | 39.6 nM | > 10000 nM | 64.1 nM | – | – | – |
| CCCNNC(=O)/C=C/c1ccc(CNCCc2c(C)[nH]c3ccccc23)cc1 | – | – | – | > 10000 nM | – | 45.1 ng/mL | 19.8% | 265 ng·h/mL |

Reference: ChEMBL document CHEMBL5042504 (J Med Chem, 2022)
